Experimental data from patent publication US20160044927A1, “Disinfectant Formulation Comprising Calcium Hydroxide and Sodium Hypochlorite” (priority 2012, published 2016).
Like-named read-outs stand apart in the source and are kept apart here.

Assays:
[1] = tested on: Aspergillus niger(#9642); settings: 24 hr, very spotty growth, not yet a confluence lawn, other replicates patchy lawn
[2] = tested on: HSV-1; settings: for Log TCID50/100 ul: preliminary
Procedure: Experiments: 10 μL of virus stock was mixed with 100% saturated Ca(OH)2 (Final Ca(OH)2 concentration 99%) and incubated for different lengths of time. Then the mixture was diluted and the viable number of virus (Log TCID) was measured.
99% saturated Ca(OH)2 was used to treat 2 viruses using different incubation times (5 min to 1 hr).

Row | SMILES | Zone of Inhibition ([1]; paste volume 0.2 ml) | Zone of Inhibition ([1]; paste volume 0.3 ml) | log kill ([2]; HSV-1, in 1 hr) | Log TCID50/100 ul ([2]; HSV-1, incubation 0 min) | Log TCID50/100 ul ([2]; HSV-1, incubation 5 min) | Log TCID50/100 ul ([2]; HSV-1, incubation 10 min) | Log TCID50/100 ul ([2]; HSV-1, incubation 15 min) | Log TCID50/100 ul ([2]; HSV-1, incubation 30 min) | Log TCID50/100 ul ([2]; HSV-1, incubation 60 min)
1 | [Ca+2].[OH-].[OH-] [Ca(OH)2 paste, calcium hydroxide] | —, ~35≠, — mm | —, ~34≠, — mm |  |  |  |  |  |  | 
2 | [Ca+2].[OH-].[OH-] [99% saturated Ca(OH)2, calcium hydroxide] |  |  | > 3.5 log | 6.5 Log TCID50/100 ul | 6 Log TCID50/100 ul | 5.5 Log TCID50/100 ul | 3.5 Log TCID50/100 ul | 3 Log TCID50/100 ul | <3 Log TCID50/100 ul
